# Data as given in ChEMBL document CHEMBL4673369, “ent-Kaurane-Based Diterpenoids, Dimers, and Meroditerpenoids from Isodon xerophilus” (J Nat Prod, 2020).
# pIC50: −log10 of the molar value. Activity calls are given as the source filed them. The calls are words filed in the database; no cut-off is given here.
# Tests used:
# [1] = system: Staphylococcus aureus; assay: Antibacterial activity against Staphylococcus aureus assessed as inhibition of growth at 100 uM after 24 hrs; format: functional, organism-based
# [2] = system: SW480; assay: Cytotoxicity against human SW480 cells assessed as reduction in cell viability; format: functional, cell-based
# [3] = Cytotoxicity against human multidrug-resistant A549/Taxol cells assessed as reduction in cell viability; format: functional, cell-based
# [4] = system: A549; assay: Cytotoxicity against human A549 cells assessed as reduction in cell viability; format: functional, cell-based
# [5] = system: HL-60; assay: Cytotoxicity against human HL-60 cells assessed as reduction in cell viability; format: functional, cell-based
# [6] = system: SMMC-7721; assay: Cytotoxicity against human SMMC-7721 cells assessed as reduction in cell viability; format: functional, cell-based
# [7] = system: MCF7; assay: Cytotoxicity against human MCF7 cells assessed as reduction in cell viability; format: functional, cell-based
# [8] = system: Candida albicans; assay: Antifungal activity against fluconazole resistant Candida albicans kzs01 assessed as inhibition of growth at 100 uM after 24 hrs; format: functional, organism-based
# [9] = system: RAW264.7; assay: Inhibition of LPS-induced NO production in mouse RAW264.7 cells incubated for 18 hrs by Griess reagent based assay; format: functional, cell-based; settings: RAW264.7, 18 h
SMILES,inhibition [1],pIC50 [2],pIC50 [3],pIC50 [4],pIC50 [5],pIC50 [6],pIC50 [7],inhibition [8],pIC50 [9]
COC[C@@H]1C(=O)[C@@]23[C@H]4OC5O[C@@]2(O)[C@@H](O)[C@@H]2C(C)(C)CCC[C@]52[C@@H]3[C@@H](OC(C)=O)C[C@@H]14,inactive,< 5.00,< 5.00,< 5.00,< 5.00,< 5.00,< 5.00,inactive,
COC(=O)CCCCCC/C=C(/C=O)C[C@H]1C(=O)[C@@]23[C@H]4OC5O[C@@]2(O)[C@@H](O)[C@@H]2C(C)(C)CCC[C@]52[C@@H]3[C@@H](OC(C)=O)C[C@@H]14,inactive,< 5.00,< 5.00,< 5.00,< 5.00,< 5.00,< 5.00,inactive,
CC(=O)O[C@H]1C[C@@H]2[C@@H]3OC4O[C@@]5(O)[C@@H](O)[C@@H]6C(C)(C)CCC[C@]46[C@H]1[C@]35C(=O)[C@]21CCC2=C(O1)[C@@]13[C@H]4OC5O[C@@]1(O)[C@@H](O)[C@@H]1C(C)(C)CCC[C@]51[C@@H]3CC[C@@H]24,inactive,< 5.00,< 5.00,< 5.00,< 5.00,< 5.00,< 5.00,inactive,
CC(=O)O[C@H]1C[C@@H]2[C@@H]3OC4O[C@@]5(O)[C@@H](O)[C@@H]6C(C)(C)CCC[C@]46[C@H]1[C@]35C(=O)[C@]21CO1,inactive,< 5.00,< 5.00,< 5.00,< 5.00,< 5.00,< 5.00,inactive,
COC[C@@]1(C[C@H]2C(=O)[C@@]34[C@H]5OC6O[C@@]3(O)[C@@H](O)[C@@H]3C(C)(C)CCC[C@]63[C@@H]4CC[C@@H]25)C(=O)[C@@]23[C@H]4OC5O[C@@]2(O)[C@@H](O)[C@@H]2C(C)(C)CCC[C@]52[C@@H]3[C@@H](OC(C)=O)C[C@H]41,inactive,< 5.00,< 5.00,< 5.00,< 5.00,< 5.00,< 5.00,inactive,4.95
CNC(=N)NCCC[C@H](N)C(=O)O [TILARGININE ACETATE],,,,,,,,,4.33
COC[C@@H]1C(=O)[C@]23[C@H](O)[C@H]1CC[C@H]2C12CCCC(C)(C)[C@H]1C(=O)[C@]3(O)[C@@H]2O,inactive,< 5.00,< 5.00,< 5.00,< 5.00,< 5.00,< 5.00,inactive,
COC[C@H]1C(=O)[C@@]23[C@H]4OC5O[C@@]2(O)[C@@H](O)[C@@H]2C(C)(C)CCC[C@]52[C@@H]3[C@@H](OC(C)=O)C[C@@H]14,inactive,< 5.00,< 5.00,< 5.00,< 5.00,< 5.00,< 5.00,inactive,4.53
COC[C@@]1(C[C@H]2C(=O)[C@@]34[C@H]5OC6O[C@@]3(O)[C@@H](O)[C@@H]3C(C)(C)CCC[C@]63[C@@H]4[C@@H](OC(C)=O)C[C@@H]25)C(=O)[C@]23[C@H](O)[C@@]4(O)OC5O[C@H]2[C@H]1C[C@H](OC(C)=O)[C@H]3[C@@]51CCCC(C)(C)[C@@H]41 (stereo partly drawn),inactive,< 5.00,< 5.00,< 5.00,< 5.00,< 5.00,< 5.00,inactive,4.37
